Source: US9204640B2, “2-acyloxy-pyrrolin-4-ones” (BAYER INTELLECTUAL PROPERTY GMBH, priority 2011, dated 2015)

Experiments:
Format in all cases: in vivo
[1] = tested on: Setaria viridis; assay: Herbicidal pre-emergence action, SETVI; conditions: Setaria viridis, pre-emergence, 20 g/ha
Excerpt: 1. Herbicidal Pre-Emergence Action
• Seeds of monocotyledonous and dicotyledonous weed plants and crop plants are placed in wood-fiber pots in sandy loam and covered with soil. The test compounds, formulated in the form of wettable powders (WP), are then, as an aqueous suspension with a water application rate of 600 l/ha (converted), with 0.2% of wetting agent added, applied at various dosages to the surface of the covering soil. • After the treatment, the pots are placed in a greenhouse and kept under good growth conditions for the test plants. The visual assessment of the damage to the test plants is carried out after a trial period of about 3 weeks by comparison with untreated controls (herbicidal activity in percent: 100% activity=the plants have died, 0% activity=like control plants). • In addition to the compounds mentioned above, the following compounds show an activity of 90-100% against Alopecurus myosuroides, Digitaria sanguinalis, Echinocloa crus-galli, Lolium multiflorum, Setaria viridis and Sorghum halapense when applied by the pre-emergence method at 320 g/ha of a.i.: I-a-2, I-a-10, I-a-11, I-a-12.
1. Herbicidal Pre-Emergence Action (Pre)
(§1) • Seeds of monocotyledonous and dicotyledonous weed plants and crop plants are placed in wood-fiber pots in sandy loam and covered with soil. The test compounds, formulated in the form of wettable powders (WP) or emulsion concentrates (EC), are then, as an aqueous suspension with a water application rate of 600-800 l/ha (converted), with 0.1-0.2% of wetting agent added, applied at various dosages to the surface of the covering soil. • After the treatment, the pots are placed in a greenhouse and kept under good growth conditions for the test plants. […] Herbicidal Post-Emergence Action (Post) • Seeds of monocotyledonous and dicotyledonous weed and crop plants are placed in sandy loam in wood-fiber pots, covered with soil and cultivated in a greenhouse under good growth conditions. 2-3 weeks (stages 10-13 according to the BBCH scale) after sowing, the test plants are treated at a height of 5-10 cm. The test compounds, formulated as wettable powders (WP) or emulsion concentrates (EC), are then, with a water application rate of 600-800 l/ha (converted), with 0.1-0.2% of wetting agent added, sprayed at various dosages onto the green parts of the plants.
(§2) AVEFA: Avena fatua LOLMU: Lolium multiflorum SETVI: Setaria viridis CHEAL: Chenopodium album VIOTR: Viola tricolor VERPE: Veronica persica ORYSA: Oryza sativa TRZAS: Triticum aestivum ZEAMX: Zea mays ALOMY: Alopecurus myosuroides DIGSA: Digitaria sanguinalis ECHCG: Echinocloa crus-galli SORHA: Sorghum halepense AVESA: Avena sativa AMARE: Amaranthus retroflexus SINAL: Sinapis alba STEME: Stellaria media

[2] = tested on: Alopecurus myosuroides; assay: Herbicidal post-emergence action, ALOMY; conditions: Alopecurus myosuroides, post-emergence, 20 g/ha
Experimental: (§3) 2. Herbicidal Post-Emergence Action
(§4) • Seeds of monocotyledonous and dicotyledonous weed and crop plants are placed in sandy loam in wood-fiber pots, covered with soil and cultivated in a greenhouse under good growth conditions. 2 to 3 weeks after sowing, the test plants are treated at the one-leaf stage. The test compounds, formulated as wettable powders (WP), are then, with a water application rate of 600 l/ha (converted), with 0.2% of wetting agent added, sprayed at various dosages onto the green parts of the plants. After the test plants have been kept in the greenhouse under optimum growth conditions for about 3 weeks, the activity of the preparations is rated visually in comparison to untreated controls (herbicidal activity in percent: 100% activity=the plants have died, 0% activity=like control plants). • In addition to the compounds mentioned above, the following compounds show an activity of 90-100% against Alopecurus myosuroides, Avena fatua, Digitaria sanguinalis, Echinocloa crus-galli, Lolium multiflorum, Setaria viridis and Sorghum halapense when applied by the post-emergence method at 320 g/ha: I-a-2, I-a-4, I-a-5, I-a-7, I-a-9, I-a-10, I-a-11, I-a-12, I-a-13, I-a-15. • In addition to the compounds mentioned above, the following compounds show an activity of 90-100% against Alopecurus myosuroides, Avena fatua, Echinocloa crus-galli, Lolium multiflorum and Setaria viridis when applied by the post-emergence method at 80 g/ha: I-a-1, I-b-2.
as §1, §2

[3] = tested on: Myzus persicae; assay: Myzus persicae test (MYZUPE Tau), leaf dipping; conditions: Myzus persicae, foliar, 144 h, 6dat
Experimental: Myzus Persicae Test (MYZUPE Tau) To produce a suitable preparation of active compound, 1 part by weight of active compound is mixed with the stated amount of solvent and emulsifier, and the concentrate is diluted with emulsifier-containing water to the desired concentration. Cabbage leaves (Brassica oleracea) which are heavily infested by the green peach aphid (Myzus persicae) are treated by dipping into the active compound preparation of the desired concentration. After the desired period of time, the kill in % is determined. 100% means that all of the aphids have been killed; 0% means that none of the aphids have been killed.

[4] = tested on: Digitaria sanguinalis; assay: Herbicidal post-emergence action, DIGSA; conditions: Digitaria sanguinalis, post-emergence, 20 g/ha
Experimental: as §3, §4, §1, §2

[5] = tested on: Echinocloa crus-galli; assay: Herbicidal post-emergence action, ECHCG; conditions: Echinochloa crus-galli, post-emergence, 20 g/ha
Experimental: as §3, §4, §1, §2

[6] = tested on: Myzus persicae; assay: Myzus persicae test; hydroponic treatment (MYZUPE Sys); conditions: Myzus persicae, 144 h, 6dat
Experimental: Myzus Persicae Test; Hydroponic Treatment (MYZUPE Sys)
To produce a suitable preparation of active compound, 1 part by weight of active compound is mixed with the stated amounts of solvent and emulsifier, and the concentrate is diluted with water to the desired concentration.
The active compound preparation is mixed with water. The stated concentration refers to the amount of active compound per volume unit of water (mg/l=ppm). The treated water is filled into vessels containing a pea plant (Pisum sativum), and the plant is the infested with the green peach aphid (Myzus persicae).
After the desired period of time, the kill in % is determined 100% means that all of the aphids have been killed; 0% means that none of the aphids have been killed.

[7] = tested on: Spodoptera frugiperda; assay: Spodoptera frugiperda test (SPODFR spray treatment)
Experimental: Spodoptera Frugiperda Test (SPODFR Spray Treatment) [table] To produce a suitable preparation of active compound, 1 part by weight of active compound is mixed with the stated amount of solvent and emulsifier, and the concentrate is diluted with emulsifier-containing water to the desired concentration. Discs of corn leaves (Zea mays) are sprayed with an active compound preparation of the desired concentration and, after drying, populated with caterpillars of the armyworm (Spodoptera frugiperda). After 7 days, the effect in % is determined. 100% means that all caterpillars have been killed; 0% means that none of the caterpillars have been killed. Spodoptera Frugiperda Test (SPODFR Spray Treatment) To produce a suitable preparation of active compound, 1 part by weight of active compound is mixed with the stated amount of solvent and emulsifier, and the concentrate is diluted with emulsifier-containing water to the desired concentration. Discs of corn leaves (Zea mays) are sprayed with an active compound preparation of the desired concentration and, after drying, populated with caterpillars of the armyworm (Spodoptera frugiperda). After the desired period of time, the activity in % is determined. 100% means that all caterpillars have been killed; 0% means that none of the caterpillars have been killed.

[8] = tested on: Tetranychus urticae; assay: Tetranychus test (TETRUR spray treatment; OP-resistant in Example 10); conditions: Tetranychus urticae, 120 h; 20 g/ha; 5dat; OP-resistant
Experimental: Tetranychus Test (TETRUR Spray Treatment)
To produce a suitable preparation of active compound, 1 part by weight of active compound is mixed with the stated amount of solvent and emulsifier, and the concentrate is diluted with emulsifier-containing water to the desired concentration. Discs of bean leaves (Phaseolus vulgaris) which are infested by all stages of the greenhouse red spider mite (Tetranychus urticae) are sprayed with an active compound preparation of the desired concentration.
After 5 days, the effect in % is determined. 100% means that all of the spider mites have been killed; 0% means that none of the spider mites have been killed.
Tetranychus Test, OP-Resistant (TETRUR Spray Treatment)
To produce a suitable preparation of active compound, 1 part by weight of active compound is mixed with the stated amount of solvent and emulsifier, and the concentrate is diluted with emulsifier-containing water to the desired concentration.
Discs of bean leaves (Phaseolus vulgaris) which are infested by all stages of the greenhouse red spider mite (Tetranychus urticae) are sprayed with an active compound preparation of the desired concentration.
After the desired period of time, the activity in % is determined. 100% means that all of the spider mites have been killed; 0% means that none of the spider mites have been killed.

[9] = tested on: Bemisia tabaci; assay: Bemisia tabaci spray test (BEMITA); conditions: Bemisia tabaci, 168 h, 7dat
Experimental: Bemisia Tabaci-Spray Test ([…]) To produce a suitable preparation of active compound, 1 part by weight of active compound is mixed with the stated amount of solvent and emulsifier, and the concentrate is diluted with emulsifier-containing water to the desired concentration. Discs of cotton leaves (Gossypium hirsutum) which are infested by all stages of the whitefly (Bemisia tabaci) are sprayed with an active compound preparation of the desired concentration. After the desired period of time, the activity in % is determined. 100% means that all the whiteflies have been killed; 0% means that none of the whiteflies have been killed.

[10] = tested on: Liriomyza trifolii; assay: Liriomyza trifolii spray test (LIRITR); conditions: Liriomyza trifolii, 168 h, 7dat, read-out: % Activity LIRITRI
Experimental: Liriomyza Trifolii-Spray Test ([…]) To produce a suitable preparation of active compound, 1 part by weight of active compound is mixed with the stated amount of solvent and emulsifier, and the concentrate is diluted with emulsifier-containing water to the desired concentration. If the addition of ammonium salts or/and penetrants is required, these are in each case added in a concentration of 1000 ppm to the solution of the preparations. Discs of bean leaves (Phaseolus vulgaris) which are infested by all stages of the leaf-mining fly (Liriomyza trifolii) are sprayed with an active compound preparation of the desired concentration. After the desired period of time, the activity in % is determined. 100% means that all of the leaf-mining flies have been killed; 0% means that none of the leaf-mining flies have been killed.

[11] = tested on: Phaedon cochleariae; assay: Phaedon test (PHAECO spray treatment); conditions: application rate 500 g/ha, after 7 days, Chinese cabbage leaf discs
Experimental: Phaedon Test ([…] Spray Treatment) [table] To produce a suitable preparation of active compound, 1 part by weight of active compound is mixed with the stated amount of solvent and emulsifier, and the concentrate is diluted with emulsifier-containing water to the desired concentration. Discs of Chinese cabbage (Brassica pekinensis) are sprayed with an active compound preparation of the desired concentration and, after drying, populated with larvae of the mustard beetle (Phaedon cochleariae). After 7 days, the effect in % is determined 100% means that all beetle larvae have been killed; 0% means that none of the beetle larvae have been killed. Phaedon Test ([…] Spray Treatment) To produce a suitable preparation of active compound, 1 part by weight of active compound is mixed with the stated amount of solvent and emulsifier, and the concentrate is diluted with emulsifier-containing water to the desired concentration. Discs of Chinese cabbage (Brassica pekinensis) are sprayed with an active compound preparation of the desired concentration and, after drying, populated with larvae of the mustard beetle (Phaedon cochleariae). After the desired period of time, the activity in % is determined. 100% means that all beetle larvae have been killed; 0% means that none of the beetle larvae have been killed.

[12] = tested on: Myzus persicae; assay: Myzus test (MYZUPE spray treatment); conditions: application rate 500 g/ha, after 5 days, Chinese cabbage leaf discs
Experimental: Myzus Test (MYZUPE Spray Treatment) [table] To produce a suitable preparation of active compound, 1 part by weight of active compound is mixed with the stated amount of solvent and emulsifier, and the concentrate is diluted with emulsifier-containing water to the desired concentration. Discs of Chinese cabbage (Brassica pekinensis) infected by all stages of the green peach aphid (Myzus persicae) are sprayed with an active compound preparation of the desired concentration. After 5 days, the effect in % is determined 100% means that all of the aphids have been killed; 0% means that none of the aphids have been killed. Myzus Test (MYZUPE Spray Treatment) To produce a suitable preparation of active compound, 1 part by weight of active compound is mixed with the stated amount of solvent and emulsifier, and the concentrate is diluted with emulsifier-containing water to the desired concentration. Discs of Chinese cabbage (Brassica pekinensis) infected by all stages of the green peach aphid (Myzus persicae) are sprayed with an active compound preparation of the desired concentration. After the desired period of time, the activity in % is determined. 100% means that all of the aphids have been killed; 0% means that none of the aphids have been killed.

[13] = tested on: Meloidogyne incognita; assay: Meloidogyne incognita test (MELGIN); conditions: 20 ppm, after 14 days, lettuce roots
Experimental: Meloidogyne Incognita Test (MELGIN) [table] To prepare a suitable active compound preparation, 1 part by weight of active compound is mixed with the stated amounts of solvent and the concentrate is diluted with water to the desired concentration. Containers are filled with sand, solution of active compound, Meloidogyne incognita egg/larvae suspension and lettuce seeds. The lettuce seeds germinate and the plants develop. On the roots, galls are formed. After 14 days, the nematicidal effect in % is determined by the formation of galls. 100% means that no galls have been found; 0% means that the number of galls on the treated plants corresponds to the untreated control.

[14] = tested on: Nilaparvata lugens; assay: Nilaparvata lugens test (NILALU hydroponic treatment); conditions: 20 ppm, after 7 days
Experimental: Nilaparvata Lugens Test ([…] Hydroponic Treatment) To produce a suitable preparation of active compound, 1 part by weight of active compound is mixed with the stated amount of solvent and emulsifier, and the concentrate is diluted with emulsifier-containing water to the desired concentration. The active compound preparation is pipetted into water. The stated concentration refers to the amount of active compound per volume unit of water (mg/l=ppm), the sample is then infected with the brown planthopper (Nilaparvata lugens). After 7 days, the effect in % is determined 100% means that all of the planthoppers have been killed; 0% means that none of the planthoppers have been killed.

SMILES: CCOC(=O)OC1=C(c2c(C)cc(I)cc2CC)C(=O)NC12CCC(OC)CC2 (centres unmarked) [I-1-c-1 known from WO 06/029799]
- inhibition at 20 g/ha [1]: 20%
- inhibition at 20 g/ha [2]: 30%
- inhibition at 20 ppm [3]: 50%
- inhibition at 20 g/ha [4]: 30%
- inhibition at 20 g/ha [5]: 30%
- inhibition at 20 ppm [6]: 60%

SMILES: CCOC(=O)OC1=C(c2c(C)cc(C)cc2C)C(=O)NC12CCC(COC)CC2 (centres unmarked) [I-1-c-16 known from WO 07/048545]
- inhibition at 500 g/ha ([7]; Spodoptera frugiperda, 168 h, 500 g/ha, 7dat): 67%
- inhibition at 20 g/ha [8]: 0%
- inhibition at 20 g/ha [9]: 27%
- inhibition at 20 g/ha [10]: 0%

SMILES: COc1cc(C)cc(C)c1C1=C(OC(=O)C(C)(C)C)NC2(CCC(OC)CC2)C1=O (centres unmarked) [I-a-2]
- effect in % (beetle larvae killed) [11]: 100%
- effect in % (caterpillars killed) ([7]; application rate 500 g/ha, after 7 days, corn leaf discs): 100%
- effect in % (aphids killed) [12]: 100%
- nematicidal effect in % (formation of galls) [13]: 100%

SMILES: CCc1cc(C)cc(Br)c1C1=C(OC(=O)C(C)(C)C)NC(C)(C)C1=O [I-a-13]
- effect in % (planthoppers killed) [14]: 100%
- effect in % (beetle larvae killed) [11]: 83%
- effect in % (aphids killed) [12]: 80%
